Laboratory results published in patent publication US20090258052A1, “COMPOUNDS AND METHODS FOR ALTERING BONE GROWTH” (OsteoGeneX Inc., priority 2008, published 2009).

Assays:
C57BL/6 mice = assay: Bone growth study in mice, daily i.p. for 30 days; serum osteocalcin by EIA Elisa; assay type: in vivo; conditions: four month old male C57BL/6 mice
Protocol: Four month old male C57BL/6 mice were treated daily with saline vehicle or sclerostin inhibitors at low, mid, or high doses (via i.p) for 30 days. Study endpoints included a biochemical marker of bone formation, osteocalcin measured by EIA Elisa, and measurement of trabecular bone volume by mico-CT analysis on both the proximal tibia and L5 vertebra.

SOST (Sclerostin) = assay: Assay for identification of SOST antagonists promoting bone growth (J Bone Miner Res 2006, 21(11), 1738-1749)
Excerpt: Compounds useful in the methods of the present invention can be identified via a variety of methods known to one of skill in the art. Several exemplary methods for identifying such antagonists are described herein, including cell-based and in vitro techniques (Journal of Bone and Mineral Research 2006, 21(11), 1738-1749). A general method of identifying SOST antagonists involves evaluating the effects of antagonist candidates on bone formation under controlled conditions. Preferably bone formation is determined using micro-CT techniques on live animals. Preferred animals include rodents, more preferred are primates. Femur, tibia and vertebrae bones are particularly useful subjects for such study.
Briefly, the test animal is treated with a predetermined dose of a SOST antagonist candidate. A control animal is treated with a control solution, preferably a non-irritating buffer solution or other carrier.
Once the dosing schedule has been completed, both test and control animals are examined to determine the quantity of bone formation present. This can be accomplished by any suitable method, but is preferably performed on live animals to analyze the bone mineral content. Methods for micro-CT examination of bones in animals are well known in the art. […] Where necessary, levels of bone formation can be calculated by determining the volume of bone formation present in each animal. […]

`O=c1[nH]nc(SCCO)c(=O)[nH]1` [OGX-21] was tested, and the “percent increase in serum osteocalcin over baseline” value (C57BL/6 mice; 10 mg/kg (A)) was 2%, the “percent increase in serum osteocalcin over baseline” value (C57BL/6 mice; 20 mg/kg (B)) was 28% and the “percent increase in serum osteocalcin over baseline” value (C57BL/6 mice; 30 mg/kg (C)) was 15%. For the same compound, the “modulation of the Wnt pathway” value (SOST (Sclerostin); FIG. 1) was “modulating the Wnt pathway” and the “promotion of bone growth” value (SOST (Sclerostin); identification assay) was “promoting bone growth”.
